Data published in US8841349B2, “Stabilize compositions based on monoalkyl glycerol ethers and aromatic alcohols” (Air Liquide Sante (International), priority 2003, dated 2014).

System: mixed suspension (Group 5) of the four test microbe groups
Assay: Koko test (pack preservation, repeated inoculation challenge) of aqueous working solutions in Ringer's solution
Type: cell-based
Details: for Koko results: microbial growth of streaks, inoculation cycle 1: inoculation cycle 1; Ringer's solution as product; use concentration 0.5% for 1), 0.6% for 2), 2.0% for 3) and 4); for Koko results: microbial growth of streaks, inoculation cycle 2: inoculation cycle 2; Ringer's solution as product; use concentration 0.5% for 1), 0.6% for 2), 2.0% for 3) and 4); for Koko results: microbial growth of streaks, inoculation cycle 3: inoculation cycle 3; Ringer's solution as product; use concentration 0.5% for 1), 0.6% for 2), 2.0% for 3) and 4); for Koko results: microbial growth of streaks, inoculation cycle 4: inoculation cycle 4; Ringer's solution as product; use concentration 0.5% for 1), 0.6% for 2), 2.0% for 3) and 4); for Koko results: microbial growth of streaks, inoculation cycle 5: inoculation cycle 5; Ringer's solution as product; use concentration 0.5% for 1), 0.6% for 2), 2.0% for 3) and 4); for Koko results: microbial growth of streaks, inoculation cycle 6: inoculation cycle 6; Ringer's solution as product; use concentration 0.5% for 1), 0.6% for 2), 2.0% for 3) and 4)
Description: Unless expressly stated otherwise, all of the percentages are percentages by weight. Aqueous working solutions were investigated using Ringer's solution as product in the Koko test.
Using the described method, the effectiveness of chemical preservatives (stabilizer compositions) is tested with regard to the pack preservation for cosmetic formulations. For this purpose, the compositions to be investigated are added in varying concentrations to the unstabilized samples in various experimental batches. A continuous microbial burden is achieved by periodically inoculating the experimental batches. In parallel to the inoculation, streaks of each of the individual batches are in each case made immediately beforehand. Assessment is made by reference to the microbial growth of the streaks.
• CSA (casein peptone soya flour peptone agar) • SA (Sabouraud dextrose agar) • SA slant tube • CSA+TLSH (No. 4) • SA-TLSH (No. 10) • NaCl (physiological sodium chloride solution, […]) • TLSH (disinhibiting medium for bacteria=Tween 80+lecithin+saponin+histidine)
The test microbe used was the mixed suspension (Group 5) of the following four test microbe groups.
Cultivation of the Test Microbes • Bacteria: streaking using a sterile glass rod on CS agar • Yeasts: streaking using a sterile glass rod on SA agar • Fungi: Aspergillus niger is transferred to 4 SA slant tubes • Penicillium funiculosum is transferred to SA agar plates
All of the test microbes are incubated for one week at 25° C.±2° C. The test microbes are replaced at intervals of 3 to 4 months.
The bacteria are rinsed off with 5 ml of NaCl solution in each case, filtered through a glass funnel containing glass wool into a 100 ml measuring cylinder and made up to 100 ml with NaCl. The bacterial suspensions have a titre of about 10^9 CFU/ml.
Three Aspergillus niger slant tubes are each shaken with 3 ml of NaCl solution on a Heldolph stirrer and introduced through a glass funnel containing glass wool. The yeast Candida albicans is rinsed off with 5 ml of NaCl and likewise poured through the glass funnel. 5 ml of a Penicillium funiculosum suspension are added to this mixture and made up to 100 ml with NaCl. The fungal suspension has a titre of about 10^5-9 CFU/ml.
The inoculation solution actually used is prepared as described above (Groups 1 to 4). After rinsing off, these are mixed and then made up to 100 ml with NaCl.
The microbial suspension was transferred to sterile glass-stoppered bottles containing glass beads and shaken for 5 min at a shaking frequency (to-and-fro movement) of 200 units/min. The microbial content of the mixed suspension is 10^9 CFU/ml. The suspension should be used on the day of preparation, but can also be used after 24 hours upon storage in a refrigerator.
In separate batches, 25 g of the cosmetic to be tested are mixed in each case with the compositions to be investigated in varying concentrations. The growth control used in each case is an unstabilized product sample. The test batches are streaked onto CSA/TLSH and SA/TLSH once per week following thorough stirring using a sterile glass rod, the first streaking being carried out directly prior to reinoculation. All of the samples are inoculated with 0.1 ml of the respective microbial suspension and thoroughly stirred.
The microbial growth of the streaks is assessed after incubation for three days at 25° C.±2° C. To be on the safe side, negative streaks are observed for a further two days and reassessed. The stabilizing action of the individual product concentration is assessed in a semiqualitative method by means of the growth of the individual streaks.
The test is usually carried out over six inoculation cycles and terminated after massive growth on two occasions.
A composition is considered good if it exists under the laboratory conditions given above for a period of six weeks without microbial attack of the sample batches, i.e. even after the sixth inoculation, no microbial growth can be detected.

O=C([O-])CNCO.[Na+] [1), sodium hydroxymethyl-glycinate]
Koko results: microbial growth of streaks, inoculation cycle 1: +Y | Koko results: microbial growth of streaks, inoculation cycle 2: +Y | Koko results: microbial growth of streaks, inoculation cycle 3: +Y | Koko results: microbial growth of streaks, inoculation cycle 4: +Y | Koko results: microbial growth of streaks, inoculation cycle 5: +Y | Koko results: microbial growth of streaks, inoculation cycle 6: +Y

CC1(C)C(=O)N(CO)C(=O)N1CO [2), dimethyldimethylolhydantoin]
Koko results: microbial growth of streaks, inoculation cycle 1: +B | Koko results: microbial growth of streaks, inoculation cycle 2: ++B | Koko results: microbial growth of streaks, inoculation cycle 3: ++B | Koko results: microbial growth of streaks, inoculation cycle 4: ++B | Koko results: microbial growth of streaks, inoculation cycle 5: ++B | Koko results: microbial growth of streaks, inoculation cycle 6: ++B
